Experimental data taken from a melting point compilation (Tetko et al.; mined from patent text by program, amines drawn as free bases though some values may be those of a salt).

Compound	melting point
Cc1ccc2c(c1)c(O)c(C(=O)NC1CCCCC1)c(=O)n2C	218 °C
COc1ccccc1Cn1c(=O)[nH]c2cc(Cl)cc(Cl)c2c1=O	143 to 146 °C
CCOC(=O)COc1c(C)c(C(=O)c2ccc(C(=O)OC)cc2)n2ccccc12	84.5 °C
CNC1=C(C#N)C(c2ccc(Cl)c([N+](=O)[O-])c2)c2ccc3ccccc3c2O1 (stereo not given)	278 to 279 °C
COC(=O)c1cn(-c2ccc(F)cc2)c(C=Cc2cccnc2)cc1=O	201 to 204 °C
CC(SC(=O)c1ccccc1)C(=O)c1ccccc1NCC(=O)O (stereo not given)	149 to 151 °C
CCOCc1nc2cnc3cccnc3c2n1CC1(O)CCOCC1	168 to 169 °C
Cc1cc(-c2ccnc(C#N)c2)n(-c2ccc(F)cc2)n1	94 to 95 °C
CC(C)(C)OC(=O)NC1CCc2ccccc2C(=Cc2ccccc2)C1=O (stereo not given)	156 to 158 °C
CC(=O)c1cccc(NC(=O)c2cc(C(N)=O)cc(C(=O)N(c3cccc(C(C)=O)c3)c3cccc(C(C)=O)c3)c2)c1	270 °C
CCOC(=O)c1ccc2c(c1)c(C)c(C)n2C(C)=O	98 to 101 °C
CC(C)(C)OC(=O)N[C@H](Cc1ccc(Cl)c(Cl)c1)C(=O)N1CCC[C@H]1C(=O)NCC1CCc2nc(N)ncc2C1 (stereo not given in full)	110 to 113 °C
CSC(CC(CCCl)C(=O)c1ccccc1)C(N)C(N)=O (stereo not given)	174 °C
NC(=O)NN=Cc1c(-c2ccccc2)nn2ccccc12	221 to 222 °C
c1ccc(-n2c3ccccc3c3cc4c(cc32)c2ccccc2n4-c2ccccc2)cc1	306 °C
CCCCCN(CCC12CC3CC(CC(C3)C1)C2)C(=O)NCCc1ccc(O)cc1	96.3 to 99.4 °C
O=C(O)c1ccc2c(=O)n(Cc3ccc(Cl)cc3Cl)cnc2c1	244 to 246 °C
COc1ccc(Cc2cccc(C(O)(C3=NCCCN3)c3ccccc3)c2)cc1 (stereo not given)	92 °C
Nc1ncnc2c1ncn2C1OC(CS)C(O)C1O (stereo not given)	108 to 109 °C
O[C@H]1CC[C@@H](Nc2ncc3ncnc(Nc4ccc(F)c(Cl)c4)c3n2)CC1	270 to 275 °C
COc1cccc(N2C(CO)=Cc3cc(S(N)(=O)=O)sc3S2(=O)=O)c1	180 to 182 °C
Cc1cn(-c2cc(NC(=O)c3cccc4cc(O)ccc34)cc(C(F)(F)F)c2)cn1	169 to 172 °C
CC1=NN(C)C(=O)C1C(=O)Nc1cccc2c1CCC2(C)C (stereo not given)	141 °C
COc1ccc(-c2cn3ccc4ccccc4c3n2)cc1	177 to 179 °C
CN1CCN(c2nc(N)c3cc(Cl)ccc3n2)CC1	176 to 178 °C

Compound	melting point
Oc1ccc2sc3ccccc3c2c1	152 to 155 °C
Cc1oc(Cc2cccc(Br)c2)c(C(=O)c2cc(C(C)C)c(OS(=O)(=O)c3ccc(C(=O)O)c(O)c3)c(C(C)C)c2)c1C	148 °C
CCOC(=S)NC1(N=NC(C)(C)C)CCCCC1	57 to 62 °C
CN(C(=O)c1ccnc(Cl)c1)c1ccccc1N1CCN(C(=O)OC(C)(C)C)CC1	59 to 61 °C
COc1ccc([N+](=O)[O-])c2c1oc1ccccc12	155 to 156 °C
CC(C)(C)n1nc(-c2ccccc2)c(C(N)=O)c1N	177 to 178 °C
O=C1NC(=O)C(c2c[nH]c3ccccc23)C1c1cc2c3c(ccn3CCC2)c1 (stereo not given)	141 to 145 °C
O=C(CCNC(=O)NOCCCl)NCC1CC1	105 to 106 °C
O=C(O)c1cccc2c1CCc1ccsc1-2	182 to 184 °C
COC(=O)COCCOc1ccc([N+](=O)[O-])cc1	96 to 97.8 °C
O=S1(=O)N(CCCN2CCN(c3ccc(O)cc3)CC2)c2cccc3c2N1CCC3	182 °C
C1=Nc2ccccc2OC1	126 to 129 °C
Cc1cn(-c2cc(NC(=O)c3ccc(C)c(Nc4nccc(-c5cccnc5)n4)c3)cc(C(F)(F)F)c2)cn1	235 to 236 °C
CC(C)Oc1c(C(=O)Nc2nnn[nH]2)sc2c1CS(=O)CC2 (stereo not given)	225 to 226 °C
COc1cc(-c2nc(-c3ccc(N(C)C)cc3)c(C)o2)ccc1OC(C)=O	97 to 102 °C
CCOC(=O)C(C)Oc1ccc2ccc(Oc3cc(-n4c(=O)cc(C(F)(F)F)n(C)c4=O)c(F)cc3C#N)cc2c1 (stereo not given)	133 °C
COC(=O)c1cc(CCCCc2c(N)nc(N)nc2O)cs1	185 to 186 °C
CCCCc1cc2c3n(ccc-2n1)CC(C)=N3	162 °C
CN(Cc1sc2c(=O)c(C(=O)NCc3ccc(Cl)cc3)cn(C)c2c1CN)C[C@@H](O)c1ccccn1	144 to 148 °C
O=c1ccccn1[C@@H]1c2cc([N+](=O)[O-])ccc2OC(CF)(CF)[C@H]1O (relative stereo)	226 to 228 °C
CCCCNC(=O)Oc1cccc(NC(=O)C=C(C)OCC)c1	164 °C
COc1ccc(C(=O)C(CC(=O)N[C@@H](Cc2ccccc2)C(=O)O)SC(C)=O)cc1F (stereo not given in full)	140 to 146 °C
Cc1cccnc1NC(N)=S	152 to 154 °C
Cc1nnc(-c2ccnc(NCc3cccc(C(F)(F)F)c3)c2)o1	141 to 142 °C
N#Cc1ccc2c(c1)C(=O)c1cc(N3CCCCC3)ccc1C2=O	274 to 275 °C
